The source of these data is BindingDB's records for doi:10.1021/jm0209984 (Universit&#224, 2003).

A short description of the experiment: Concentration required to achieve 50% protection of MT-4 cell from the HIV-1 induced cytopathogenicity was determined by the MTT method. (In general: Protection from cytopathic effect is a common read-out in antiviral testing.)
As usually defined, the EC50 is the concentration that produces a half-maximal response. Low readings indicate greater potency, high ones weaker potency. For the molecule `O=C(c1ccccc1)N(C(=S)OCCOc1ccccc1)c1ccccc1` [Benzoyl-phenyl-thiocarbamic acid O-(2-phenoxy-ethyl) ester], a half-maximal response (EC50) required 8 µM. As for `O=C(c1ccccc1)N(C(=S)OCCSc1ccccc1)c1ccccc1` [Benzoyl-phenyl-thiocarbamic acid O-(2-phenylsulfanyl-ethyl) ester], the half-maximal effective concentration (EC50) is more than 44 µM. Next, `O=C1c2ccccc2C(=O)N1CCOC(=S)N(C(=O)c1ccccc1)c1ccccc1` [Benzoyl-phenyl-thiocarbamic acid O-[2-(1,3-dioxo-1,3-dihydro-isoindol-2-yl)-ethyl] ester]: 0.4 µM; `O=C(c1ccccc1)N(C(=S)OCc1ccco1)c1ccccc1` [Benzoyl-phenyl-thiocarbamic acid O-furan-2-ylmethyl ester]: more than 38.3 µM.

Molecule `O=C(c1ccccc1)N(C(=S)OCCc1ccccc1)c1ccccc1` [Benzoyl-phenyl-thiocarbamic acid O-phenethyl ester] returned an EC50 of 4.2 µM.

In the case of `S=C(NCCc1ccccn1)Nc1ccc(Br)cn1` [N-(2-(2-Pyridylethyl))-N -(2-(5-bromopyridyl))thiourea], the EC50 amounted to 0.02 µM. Next, `O=C1c2ccccc2C(=O)N1CCOC(=S)N(C(=O)c1ccc(Cl)cc1)c1ccc(Cl)cc1` [O-2-(1,3-dioxoisoindolin-2-yl)ethyl 4-chlorobenzoyl(4-chlorophenyl)carbamothioate]: 0.025 µM; `O=C1c2ccccc2C(=O)N1CCOC(=S)N(C(=O)c1ccco1)c1ccc(Cl)cc1` [O-2-(1,3-dioxoisoindolin-2-yl)ethyl 4-chlorophenyl(furan-2-carbonyl)carbamothioate]: 0.007 µM. In the case of `O=C1c2ccccc2C(=O)N1CCOC(=S)N(C(=O)c1ccccc1)c1ccc(Cl)cc1` [O-2-(1,3-dioxoisoindolin-2-yl)ethyl benzoyl(4-chlorophenyl)carbamothioate] it was 0.1 µM; in that of `CC(COc1ccccc1)OC(=S)N(C(=O)Oc1ccccc1)c1ccccc1` (configuration not stated) [O-(1-methyl-2-phenoxyethyl) O-phenyl phenylimidothiodicarbonate], more than 200 µM. Take `CCCOC(=O)N(C(=S)OC(C)COc1ccccc1)c1ccccc1` (configuration not stated) [O-(1-methyl-2-phenoxyethyl) O-propyl phenylimidothiodicarbonate]: a half-maximal response (EC50) required 131 µM.

On to `CCCCOC(=O)N(C(=S)OC(C)COc1ccccc1)c1ccccc1` (configuration not stated) [O-butyl O-(1-methyl-2-phenoxyethyl) phenylimidothiodicarbonate], for which the response was half-maximal at 47 µM (EC50). In the case of `COc1cc(C(=O)N(C(=S)OCCOc2ccccc2)c2ccccc2)cc(OC)c1OC` [Phenyl-(3,4,5-trimethoxy-benzoyl)-thiocarbamic acid O-(2-phenoxy-ethyl) ester] it was 9.6 µM. Turning to `O=C(/C=C/c1ccccc1)N(C(=S)OCCOc1ccccc1)c1ccccc1` [Phenyl-(3-phenyl-acryloyl)-thiocarbamic acid O-(2-phenoxy-ethyl) ester], the 50% effective concentration (EC50) turned out to be 7.7 µM. Take `O=C(/C=C/c1ccccc1)N(C(=S)OCCc1ccccc1)c1ccccc1` [Phenyl-(3-phenyl-acryloyl)-thiocarbamic acid O-phenethyl ester]: the EC50 came out at 4.5 µM. `CC(COc1ccccc1)OC(=S)N(C(=O)c1cccs1)c1ccccc1` (configuration not stated) [Phenyl-(thiophene-2-carbonyl)-thiocarbamic acid O-(1-methyl-2-phenoxy-ethyl) ester]: a half-maximal effect (EC50) was put at 2 µM. In the case of `O=C(c1cccs1)N(C(=S)OCCOc1ccccc1)c1ccccc1` [Phenyl-(thiophene-2-carbonyl)-thiocarbamic acid O-(2-phenoxy-ethyl) ester] it was 8.6 µM.
